Tests used:
[1] = tested on: brain tumor (N32 and F98); assay: MRI of brain tumors in rats with contrast agent; format: in vivo, rat
Description: Rats were implanted with tumors by stereotactic infusion of tumor cells into the brain.
Various MRI imaging modes were used in the analysis: T1-weighted, T2-weighted, and T2*-weighted.
Rats weighing about 350 g, seeded with either F98 or N32 cells were used for tumor imaging. A<0.5 mm burr hole was drilled through the skull of the anesthetized rats at the point of inoculation. Tumors were initiated by inoculating one microliter of culture medium, containing 10,000 cultured cells, 4-5 mm deep into the left striatum, at a point 4 mm to the left of the midline in the (serrated) coronal suture. A 27-gauge needle fitted with a depth-limiting plastic collar to ensure cell injection 4-5 mm beneath the skull was connected to a Hamilton microsyringe via flexible tubing. Following a 30-second infusion of the cells, another 30 seconds was taken to allow the cells to settle before removing the needle. For F98 tumor animals, death ensued 24+ days after inoculation.
MRI was performed at day 16 after tumor cell implantation. […] The rats were immediately positioned on a support and MRI was performed in a 1.5 tesla whole-body clinical scanner (Siemens Vision, Germany) with a human extremity (knee) coil. High-resolution turbo spin-echo sagittal imaging was used for selecting slice position with imaging parameters as follows. […]

regions of wound healing = assay: Wound healing delineation by MRI; format: in vivo, rat; settings: site opened two weeks prior for injecting tumor cells
Description: MRI was performed at day 16 after tumor cell implantation. The animals were anesthetized and injected interperitoneally with either 200 microliters of gadodiamide (287 mg gadodiamide/ml) (Omniscan, Nycomed, Princeton, N.J.) or 200 microliters of the extended cobalt complex (containing 10 mg Co/ml ±30%). The rats were immediately positioned on a support and MRI was performed in a 1.5 tesla whole-body clinical scanner (Siemens Vision, Germany) with a human extremity (knee) coil. High-resolution turbo spin-echo sagittal imaging was used for selecting slice position with imaging parameters as follows. For T2 weighted images: repetition time (TR)=3000 msec; echo time (TE)=25 msec; field of view (FOV)=100×100 mm; matrix size=256×256; image slice thickness (TH)=2 mm. Tumor images were collected at various times after a single interperitoneal injection. Imaging times were 3 min/scan and resolution was […]. Imaging covered a 30 min period after injection.
This is surprising as the vasculature and components of a wounded region differ from normal tissue only subtly, and these differences are not highlighted by the gadodiamide reagent. This type of imaging can be used to detect internal damage, internal bleeding, or other forms of lesions with MRI using the cobalt complex as contrast agent.
Methods were performed as in Example 8.

[2] = rat, in vivo, ip

Compound: CNC(=O)CN(CCN(CCN(CC(=O)[O-])CC(=O)NC)CC(=O)[O-])CC(=O)[O-].[Gd+3] [gadodiamide]
- tumor visibility in all MRI imaging modes ([1]; T1-weighted, T2-weighted and T2*-weighted): no trace of any tumors was evident
- enhancement / imaging of brain tumor by MRI ([1]; rats with N32 or F98 tumor, 200 microliters interperitoneally, 1.5 tesla): No enhancement
- image contrast at wound site by MRI (regions of wound healing): No such contrast was evident
- ALBm (albumen) [2]: 1.5 g/dL
- ALP (alkaline phosphatase) [2]: 202 IU/L
- ALT (alanine transaminase) [2]: 62 IU/L
- AST (aspartate transaminase) [2]: 183 IU/L
- BUNm (blood urea nitrogen) [2]: 16 mg/dL
- CK (creatine kinase) [2]: 820 IU/L
- CL (chloride) [2]: 101 mEq/L
- CO2 (carbon dioxide) [2]: 30 mEq/L
- GLUCm (glucose) [2]: 177 mg/dL
- K (potassium) [2]: 5.5 mEq/L
- NA (sodium) [2]: 139 mEq/L
- liver enzyme activity compared to the control [2]: slight increase
